# Data reported in patent US20190374563A1, “TREATMENT OF KLEBSIELLA PNEUMONIAE INFECTIONS WITH ANTIBACTERIAL AMINOGLYCOSIDE COMPOUNDS” (Achaogen, Inc., priority 2009, published 2019).
# Read-outs that look alike come from different tables or passages of the source.
# Columns and labels:
# [1] = system: P. aeruginosa ATCC 27853 (APAE001); assay: MIC assay, CLSI broth microdilution; type: cell-based; conditions: Pseudomonas aeruginosa
# Method: (§1) Minimum inhibitory concentrations (MIC) were determined by reference Clinical and Laboratory Standards Institute (CLSI) broth microdilution methods per M7-A7 [2006]. Quality control ranges utilizing E. coli ATCC 25922, P. aeruginosa ATCC 27853 and S. aureus ATCC 29213, and interpretive criteria for comparator agents were as published in CLSI M100-S17 [2007]. Briefly, serial two-fold dilutions of the test compounds were prepared at 2× concentration in Mueller Hinton Broth. The compound dilutions were mixed in 96-well assay plates in a 1:1 ratio with bacterial inoculum. The inoculum was prepared by suspension of a colony from an agar plate that was prepared the previous day. Bacteria were suspended in sterile saline and added to each assay plate to obtain a final concentration of 5×10^5 CFU/mL. The plates were incubated at 35° C. for 20 hours in ambient air.
# [2] = system: E. coli ATCC 25922 (AECO001); assay: MIC assay, CLSI broth microdilution; type: cell-based; set-up: MIC AECO001: unit not given here; conditions: for MIC: Escherichia coli
# Method: as §1
# [3] = ATCC27853, read-out: MIC APAE001
# [4] = ATCC25922, read-out: MIC AECO001
# [5] = Table 1, APAE001 is ATCC27853, read-out: MIC APAE001
# [6] = Table 1, AECO001 is ATCC25922, read-out: MIC AECO001
Compound,"MIC [1, 3] [mg/L]","MIC [2, 4] [mg/L]","MIC [1, 5] [mg/L]","MIC [2, 6] [mg/L]","MIC AECO001 ([2]; Table 3, E. coli ATCC25922)"
"CNCC(=O)N[C@@H]1CC=C(CN)O[C@@H]1O[C@H]1[C@H](O)[C@@H](O[C@H]2OC[C@](C)(O)[C@H](NC)[C@H]2O)[C@H](NC(=O)[C@@H](O)CCN)C[C@@H]1N [Example 86, 2′-(N-methyl-amino-acetyl)-1-(4-amino-2(S)-hydroxy-butyryl)-sisomicin]",1 to 16,1 to 16,–,–,–
"CN[C@@H]1[C@@H](O)[C@@H](O[C@@H]2[C@@H](O)[C@H](O[C@H]3OC(CNCC4(N)CC4)=CC[C@H]3N)[C@@H](N)C[C@H]2NC(=O)[C@@H](O)CN)OC[C@]1(C)O [Example 67, 6′-(Methyl-1-Amino-cyclopropyl)-1-(3-amino-2(S)-hydroxy-propionyl)-sisomicin]",1 to 16,1 to 16,–,–,–
"CN[C@@H]1[C@@H](O)[C@@H](O[C@@H]2[C@@H](O)[C@H](O[C@H]3OC(CNCCCCN)=CC[C@H]3N)[C@@H](N)C[C@H]2NC(=O)[C@@H](O)CCN)OC[C@]1(C)O [Example 43, 6′-(4-Amino-butyl)-1-(4-amino-2(S)-hydroxy-butyryl)-sisomicin]",< 1,< 1,–,–,–
"CN[C@@H]1[C@@H](O)[C@@H](O[C@@H]2[C@@H](O)[C@H](O[C@H]3OC(CNCC4CC4)=CC[C@H]3N)[C@@H](N)C[C@H]2NC(=O)[C@@H](O)CN)OC[C@]1(C)O [Example 13, 6′-(Methyl-cyclopropyl)-1-(3-amino-2(S)-hydroxy-propionyl)-sisomicin]",–,–,> 16,1 to 16,1
"CN[C@@H]1[C@@H](O)[C@@H](O[C@@H]2[C@@H](O)[C@H](O[C@H]3OC(CNCCN)=CC[C@H]3N)[C@@H](N)C[C@H]2NC(=O)[C@@H](O)CCN)OC[C@]1(C)O [Example 38, 6′-(2-Amino-ethyl)-1-(4-amino-2(S)-hydroxy-butyryl)-sisomicin]",1 to 16,< 1,–,–,–
"CN[C@@H]1[C@@H](O)[C@@H](O[C@@H]2[C@@H](O)[C@H](O[C@H]3OC(CN)=CC[C@H]3NC(=O)CN)[C@@H](N)C[C@H]2NC(=O)[C@@H](O)CCN)OC[C@]1(C)O [Example 87, 2′-(2-Amino-acetyl)-1-(4-amino-2(S)-hydroxy-butyryl)-sisomicin]",1 to 16,1 to 16,–,–,–
CN[C@@H]1[C@@H](O)[C@@H](O[C@@H]2[C@@H](O)[C@H](O[C@H]3OC(CNCC4(O)CC(N)C4)=CC[C@H]3N)[C@@H](N)C[C@H]2NC(=O)C2(O)CNC2)OC[C@]1(C)O (some centres unmarked) [Example 47],1 to 16,1 to 16,–,–,–
CN[C@@H]1[C@@H](O)[C@@H](O[C@@H]2[C@@H](O)[C@H](O[C@H]3OC(CNCCC4CNCCN4C)=CC[C@H]3N)[C@@H](N)C[C@H]2NC(=O)[C@@H](O)CCN)OC[C@]1(C)O (some centres unmarked) [Example 45],–,–,1 to 16,< 1,–
"CN[C@@H]1[C@@H](O)[C@@H](O[C@@H]2[C@@H](O)[C@H](O[C@H]3OC(CN)=CC[C@H]3NCC(N)CO)[C@@H](N)C[C@H]2NC(=O)[C@@H](O)CCN)OC[C@]1(C)O (stereo partly drawn) [Example 97, 2′-(2-Amino-propanol)-1-(4-amino-2(S)-hydroxy-butyryl)-sisomicin]",1 to 16,< 1,–,–,–
"CN[C@@H]1[C@@H](O)[C@@H](O[C@@H]2[C@@H](O)[C@H](O[C@H]3OC(CN)=CC[C@H]3NC(=O)C(N)CCCN)[C@@H](N)C[C@H]2NC(=O)[C@@H](O)CCN)OC[C@]1(C)O (stereo partly drawn) [Example 99, 2′-(2,5-Diamino-pentoyl)-1-(4-amino-2(S)-hydroxy-butyryl)-sisomicin]",1 to 16,1 to 16,–,–,–
"CN[C@@H]1[C@@H](O)[C@@H](O[C@@H]2[C@@H](O)[C@H](O[C@H]3OC(CNCCCC(O)CN)=CC[C@H]3N)[C@@H](N)C[C@H]2NC(=O)[C@@H](O)CN)OC[C@]1(C)O (stereo partly drawn) [Example 80, 6′-(4-Hydroxy-5-amino-pentyl)-1-(3-amino-2(S)-hydroxy-propionyl)-sisomicin]",< 1,< 1,–,–,–
